{
  "source": "patent US20240366602A1",
  "about": "“COMBINATION THERAPY OF APELIN RECEPTOR AGONIST AND GLP-1 RECEPTOR AGONIST FOR TREATING A DISEASE OR CONDITION ASSOCIATED WITH WEIGHT GAIN” (BioAge Labs, Inc., priority 2023, published 2024)",
  "test_system": "healthy volunteers aged≥65 years",
  "assay": "Phase 1b Part B (MD) 10-day bed rest muscle atrophy study",
  "type": "in vivo, human",
  "procedure": "In Part B, of the 30 subjects enrolled, all of which are ≥65 years of age. […] In the multi-dose cohorts (1A, 1B, 1C), PD parameters for effects on changes in insulin sensitivity and muscle indices during a period of bed rest are measured and evaluated to better inform decisions regarding choice of dose and direction of further development.\nIn each of the 3 cohorts in Part B, 30 total subjects are enrolled to receive treatment in either Cohort 1A, Cohort 1B, or Cohort 1C. Cohort 1A includes 10 subjects who all receive placebo NS over a 1 hour infusion for 10 days on Days 1 through Day 10. […] Patients are at bed rest for the entire 10-day duration of treatment.\nVital signs was collected daily and include diastolic and systolic blood pressure and pulse. On Days −1, 1, 5, and 10, vital signs was collected at the following timepoints: predose (additionally temperature and respiratory rate), 0.25 h, 0.5 h, 0.75 h, 1 h, 2 h, 3 h, 4 h, 6 h, 8 h, and 12 h after the start of study drug infusion. Vital signs will also be collected on Day 10 (23 h) and before discharge on Day 12. • D. Safety laboratory tests include complete blood count, clinical chemistries, and urinalysis. • E. Samples are to be collected in the morning. Subjects are to be fasting from 10:00 PM onward (min 8 hours fast) each night but may drink as much water as requested. • F. ECGs are to be taken predose and immediately following the completion of the 1-hour infusion. On Day 11, an ECG will also be taken again 23 h after the start of the Day 10 study drug infusion. • G. AEs was recorded from the start time of the first consumption of heavy water until the end of the subject's participation in the study. At discharge from the unit, any ongoing AEs was documented in source and in EDC was followed until the event is resolved or stabilized. […] On Days 1, 5, and 10, PK samples were collected at the following timepoints: predose, 0.25 h, 0.5 h, 0.75 h, 1 h, 2 h, 3 h, 4 h, 6 h, 8 h, and 12 h after the start of study drug infusion. Samples will also be collected 24 h (Day 11), 48 h (Day 12), 72 h (Day 13), and 96 h (Day 14) after the start of the last infusion. PK samples were taken from the opposite arm used for the IV infusion. • J. Continuous cardiac ECG telemetry monitoring was used starting on Day 1 pre-dose and continuing through the end of dosing on Day 10. • K. Subjects were asked to remain in their beds, apart from using a wheelchair to be taken to the shower and they will shower seated. They will also use a wheelchair to get to and from the bathroom. When not in bed, subjects were in a wheelchair. • L. Subjects will wear the pneumatic compression cuffs the entire duration of bed rest, except for when in a wheelchair to use the bathroom and shower. • M. Muscle circumference, cross-sectional area, color flow analysis, AP diameter, and echo density of the vastus lateralis and gastrocnemius were measured by ultrasound. Ultrasound imaging must be conducted by the same technician throughout the study for all subjects. […]",
  "key": {"[1]": {"conditions": "10-day bed rest, BGE-105 240 mg daily (cohort MD 1B)"}, "[2]": {"conditions": "10-day bed rest, BGE-105 240 mg daily (cohort MD 1B), vastus lateralis ultrasound"}, "[3]": {"conditions": "10 days of bed rest, ultrasound"}, "[4]": {"conditions": "BGE-105 240 mg once daily IV for 10 days vs placebo"}},
  "note": "Values joined by “and” are separate entries in the source; they are usually repeats but may differ in a detail not shown here. Equal values may be shown once. “Also recorded” adds a separate entry of the source.",
  "data": [
    {"smiles": "COc1cccc(OC)c1-n1c(NS(=O)(=O)[C@@H](C)[C@H](C)c2ncc(C)cn2)nnc1-c1cncc(C)c1", "note": "[BGE-105, (2S,3R)—N-(4-(2,6-dimethoxyphenyl)-5-(5-methyl-3-pyridinyl)-4H-1,2,4-triazol-3-yl)-3-(5-methyl-2-pyrimidinyl)-2-butanesulfonamide]", "values": [
      {"measurement": "Muscle grade (progression), % change: baseline to D10", "setting": "[1]", "value": "−9", "unit": "%"},
      {"measurement": "Thigh circumference, % change: baseline to D10", "setting": "[1]", "value": "+0.8%"},
      {"measurement": "Cumulative protein synthesis, % change: baseline to D10", "setting": "10-day bed rest, BGE-105 240 mg daily (cohort MD 1B), biopsy", "value": 22, "unit": "%"},
      {"measurement": "AP diameter (thickness), % change: baseline to D10", "setting": "[2]", "value": "−8.0", "unit": "%"},
      {"measurement": "Cross-sectional area (CSA), % change: baseline to D10", "setting": "[2]", "value": "−5.7", "unit": "%"},
      {"measurement": "Muscle quality grade worsened (grade 1 to grade 2), number of volunteers", "setting": "10-day bed rest, ultrasound echo density, placebo 8 of 10", "value": "1 of 11 and 1 out of 11 and (1 out of 11)"},
      {"measurement": "Synthesis of myofibrillar structural proteins such as myosin and troponin", "setting": "10 days bed rest, D2O method and muscle biopsy", "value": "preserved compared to placebo"},
      {"measurement": "Muscle protein synthesis, muscle microbiopsy of vastus lateralis", "setting": "10 days of bed rest, bed rest-induced decrease, vs placebo", "value": "significantly ameliorated; also recorded: elevated rate of muscle protein synthesis"},
      {"measurement": "Improvement in thigh circumference relative to placebo", "setting": "10 days of bed rest, n=11", "value": 100, "unit": "%"},
      {"measurement": "Improvement in vastus lateralis cross-sectional area relative to placebo", "setting": "[3]", "value": 58, "unit": "%"},
      {"measurement": "Improvement in vastus lateralis thickness relative to placebo", "setting": "[3]", "value": 73, "unit": "%"},
      {"measurement": "Reduction in loss of vastus lateralis cross-sectional area", "setting": "[4]", "value": "> 50", "unit": "%"},
      {"measurement": "Reduction in loss of vastus lateralis muscle thickness", "setting": "[4]", "value": 75, "unit": "%"},
      {"measurement": "Mean normalized fraction synthetic rate", "setting": "BGE-105 treated patients with elevated rate, after 10 days of bed rest", "value": "0.18-2.2"},
      {"measurement": "Improvement in muscle dimension (muscle size by ultrasound)", "setting": "Cohort 1B vs Cohort 1A", "value": "~75", "unit": "%"},
      {"measurement": "Physical activity, step ratio by wearable activity device", "setting": "Day 10 through Day 60 (post-bedrest), vs placebo", "value": "increase in physical activity; also recorded: more pronounced in the BGE-105 group"},
      {"measurement": "Reduction of the cross-sectional area of the Vastus Lateralis", "setting": "after 10-day bed rest, mean percent change from baseline, placebo 19.47%", "value": 8.041, "unit": "%"},
      {"measurement": "Reduction of vastus lateralis diameter", "setting": "after 10-day bed rest, mean percent change from baseline, placebo 21.18%", "value": 5.664, "unit": "%"},
      {"measurement": "Patients with elevated rate of muscle protein synthesis", "setting": "after 10 days of bed rest, placebo 3 out of 10", "value": "8 out of 11"},
      {"measurement": "Patients with elevated rate of muscle protein synthesis", "setting": "after 10 days of bed rest, placebo 30%", "value": "about 72.7%"},
      {"measurement": "Increase in thigh circumference", "setting": "after the 10-day bed rest period, placebo 6.438% reduction", "value": 0.8, "unit": "%"},
      {"measurement": "Echo density measurements, increase", "setting": "treatment group (Cohort 1B, 240 mg daily), placebo 6.4% decrease", "value": 0.8, "unit": "%"}
    ]}
  ]
}
